Assay results reported in patent US20230382926A1, “COMPOUNDS AND USES THEREOF” (The University of The West Indies, priority 2022, published 2023).

Experiments:
[1] = test system: Carbapenem resistant Acinetobacter baumannii; assay: Broth microdilution minimum inhibitory concentration; type: cell-based; conditions: compound alone
Experimental: (§1) Antibacterial activity of the synthesized compounds was determined following guidelines established by the Clinical and Laboratory Standards Institute M07-A10 (CLSI 2015), following the broth microdilution method. Briefly, the test articles were dissolved in 100% DMSO, diluted by 2-fold serial titrations in the same vehicle (100% DMSO), for a total of 11 concentrations. A 4 μL aliquot of each dilution was then added to 196 μL of broth medium seeded with the bacterial suspension in wells of a 96 well plate (bacterial count: 2×10^5 to 8×10^5 colony forming units/mL final). The highest test substance concentration was 1028 μg/mL, and the final vehicle concentration was 2 percent. Following incubation, the test plate was visually examined, and each well was scored for growth or complete inhibition of growth. The minimum inhibitory concentration was determined as the lowest concentration were no growth of the bacterial was observed. Each test article was assayed in duplicate.

[2] = test system: Carbapenem resistant Klebsiella pneumoniae; assay: as above; type: cell-based; conditions: compound alone
Experimental: as §1

[3] = test system: Methicillin resistant Staphylococcus aureus; assay: as above; type: cell-based; conditions: compound alone
Experimental: as §1

[4] = test system: Multidrug resistant Pseudomonas aeruginosa; assay: as above; type: cell-based; conditions: compound alone
Experimental: as §1

[5] = test system: Vancomycin resistant Enterococcus faecalis; assay: as above; type: cell-based; conditions: compound alone
Experimental: as §1

[6] = test system: MRSA; assay: Rescue concentration of substituted phenyl azaindole derivatives; type: cell-based, Staphylococcus aureus; conditions: Amoxicillin fixed at 2 μg/mL
Experimental: (§2) The antibiotic adjuvant activity of the SPazaBIMs were evaluated in combination with representative antibiotics (representing 13 antibiotic classes) against the 19 pathogens strains listed in Table 3. To assess the adjuvant properties of the SP-azaBIM molecules, a modified checkerboard minimum inhibitory concentration assay was used. A fixed concentration of the respective antibiotic (susceptible breakpoint concentration) was mixed with a twofold dilution series of the test SP-azaBIM (FIG. 1). This was to determine the concentration of SP-azaBIM needed potentiate the antibiotic at a clinically susceptible breakpoint concentration. Antibiotic susceptible breakpoint concentrations for the respective bacteria were determined using Clinical Laboratory Standards Institute (CLSI) criteria M100 ED31.
(§3) In this study, only those antibiotics to which the bacterial was classed as resistant were included in the adjuvant assays. In this assay we recorded the rescue concentration of the SP-BIM for a respective antibiotic. The rescue concentration was defined as the concentration of the adjuvant that reduces the minimum inhibitory concentration (MIC) of an antibiotic to the susceptibility breakpoint.
(§4) Immediately prior to testing, the respective antibiotic and SP-azaBIM was dissolved in sterile deionised water at 20× the required test concentration. Each microtiter well was then inoculated with 180 μl of bacterial inoculum of 10^6 CFU/ml in ca-MHB, and 10 μl each if the antibiotic and SP-azaBIM was added to the plates. These plates were then incubated at 35° C. for 24 h under aerobic conditions. A similar method was followed for the fastidious pathogens except that they were cultured in ca-MHB with 5% sheep blood and 5% CO2.
(§5) Bacterial growth was visually inspected after the incubation period and the rescue concentration of the test SP-azaBIM was determined as the lowest concentration of the compound needed to reduce bacterial growth by 99.99% at the susceptible breakpoint concentration of the antibiotic. For example, CLSI states that Pseudomonas aeruginosa is susceptible to the Imipenem if the MIC is ≤2 μg mL^−1. If the bacteria can tolerate this concentration in vitro, then the bacteria has an intermediate or absolute resistance toward that antibiotic. The goal was to determine the concentration of SP-azaBIM needed to cause P. aeruginosa death at 2 μg mL^−1 of Imipenem therefore restoring susceptibility of the bacteria to toward the antibiotic.
(§6) Phenyl azaindole compounds are also tested for their adjuvant activities and the method is shown in Example 39.

[7] = test system: K. pneumoniae; assay: as above; type: cell-based; conditions: for Rescue concentration, K. pneumoniae Ciprofloxacin (1 μg/mL): Ciprofloxacin fixed at 1 μg/mL; for Rescue concentration, K. pneumoniae Imipenem (1 μg/mL): Imipenem fixed at 1 μg/mL
Experimental: as §2, §3, §4, §5, §6

[8] = test system: P. aeruginosa; assay: as above; type: cell-based; conditions: Imipenem fixed at 1 μg/mL
Experimental: as §2, §3, §4
Bacterial growth was visually inspected after the incubation period and the rescue concentration of the test SP-azaBIM was determined as the lowest concentration of the compound needed to reduce bacterial growth by 99.99% at the susceptible breakpoint concentration of the antibiotic. […] If the bacteria can tolerate this concentration in vitro, then the bacteria has an intermediate or absolute resistance toward that antibiotic. […]
as §6

SMILES | MIC [1] | MIC [2] | MIC [3] | MIC [4] | MIC [5] | Rescue concentration, MRSA Amoxicillin (2 μg/mL) [6] | Rescue concentration, K. pneumoniae Ciprofloxacin (1 μg/mL) [7] | Rescue concentration, K. pneumoniae Imipenem (1 μg/mL) [7] | Rescue concentration, P. aeruginosa Imipenem (1 μg/mL) [8]
O=[N+]([O-])c1ccc(C(O)c2c[nH]c3ncc(Cl)cc23)cc1 (stereo not drawn) [4NO2-5Cl-7aza-OH, (5-chloro-1H-pyrrolo[2,3-b]pyridin-3-yl)(4-nitrophenyl)methanol] | < 1020 µg/mL | < 1020 µg/mL | < 1020 µg/mL | < 1020 µg/mL | < 1020 µg/mL | 32 µg/mL | <256 µg/mL | <256 µg/mL | <256 µg/mL
O=[N+]([O-])c1ccc(C(O)c2c[nH]c3ncc(F)cc23)cc1 (stereo not drawn) [4NO2-5Fl-7aza-OH, (5-fluoro-1H-pyrrolo[2,3-b]pyridin-3-yl)(4-nitrophenyl)methanol] | < 1020 µg/mL | < 1020 µg/mL | < 1020 µg/mL | < 1020 µg/mL | < 1020 µg/mL | 16 µg/mL | <256 µg/mL | <256 µg/mL | <256 µg/mL
O=[N+]([O-])c1ccc(C(O)c2c[nH]c3c(Cl)nccc23)cc1 (stereo not drawn) [4NO2-7Cl-6aza-OH, (7-chloro-1H-pyrrolo[2,3-c]pyridin-3-yl)(4-nitrophenyl)methanol] | < 1020 µg/mL | < 1020 µg/mL | < 1020 µg/mL | < 1020 µg/mL | < 1020 µg/mL | 8 µg/mL | <256 µg/mL | <256 µg/mL | <256 µg/mL
Oc1ccc(C(O)c2c[nH]c3cnc(Cl)cc23)cc1 (stereo not drawn) [4OH-5Cl-6aza-OH, 4-((5-chloro-1H-pyrrolo[2,3-c]pyridin-3-yl)(hydroxy)methyl)phenol] | < 1020 µg/mL | < 1020 µg/mL | < 1020 µg/mL | < 1020 µg/mL | < 1020 µg/mL | 16 µg/mL | <256 µg/mL | 256 µg/mL | <256 µg/mL
Oc1ccc(C(O)c2c[nH]c3ncc(F)cc23)cc1 (stereo not drawn) [4OH-5Fl-7aza-OH, 4-((5-fluoro-1H-pyrrolo[2,3-b]pyridin-3-yl)(hydroxy)methyl)phenol] | < 1020 µg/mL | < 1020 µg/mL | < 1020 µg/mL | < 1020 µg/mL | < 1020 µg/mL | 16 µg/mL | <256 µg/mL | <256 µg/mL | 256 µg/mL
Oc1ccc(C(c2c[nH]c3cnc(Cl)cc23)c2c[nH]c3cnc(Cl)cc23)cc1 [4OH-Bis 5Cl 6aza, 4-(bis(5-chloro-1H-pyrrolo[2,3-c]pyridin-3-yl)methyl)phenol] | < 1020 µg/mL | < 1020 µg/mL | < 1020 µg/mL | < 1020 µg/mL | < 1020 µg/mL | 8 µg/mL | <256 µg/mL | <256 µg/mL | <256 µg/mL
Oc1ccc(C(c2c[nH]c3ncc(Cl)cc23)c2c[nH]c3ncc(Cl)cc23)cc1 [4OH-Bis 5Cl 7aza, 4-(bis(5-chloro-1H-pyrrolo[2,3-b]pyridin-3-yl)methyl)phenol] | < 1020 µg/mL | < 1020 µg/mL | < 1020 µg/mL | < 1020 µg/mL | < 1020 µg/mL | 2 µg/mL | <256 µg/mL | <256 µg/mL | <256 µg/mL
O=[N+]([O-])c1ccccc1C(O)c1c[nH]c2cnccc12 (stereo not drawn) [Compound 2NO2-6aza-OH, (2-nitrophenyl)(1H-pyrrolo[2,3-c]pyridin-3-yl)methanol] | < 1020 µg/mL | < 1020 µg/mL | < 1020 µg/mL | < 1020 µg/mL | < 1020 µg/mL | 256 µg/mL | 256 µg/mL | 128 µg/mL | <256 µg/mL
O=[N+]([O-])c1ccccc1C(O)c1c[nH]c2ncccc12 (stereo not drawn) [Compound 2NO2-7aza-OH, (2-nitrophenyl)(1H-pyrrolo[2,3-b]pyridin-3-yl)methanol] | < 1020 µg/mL | < 1020 µg/mL | < 1020 µg/mL | < 1020 µg/mL | < 1020 µg/mL | 256 µg/mL | <256 µg/mL | <256 µg/mL | <256 µg/mL
OC(c1cccc(Br)c1)c1c[nH]c2cnccc12 (stereo not drawn) [Compound 3Br-6aza-OH, (3-bromophenyl)(1H-pyrrolo[2,3-c]pyridin-3-yl)methanol] | < 1020 µg/mL | < 1020 µg/mL | < 1020 µg/mL | < 1020 µg/mL | < 1020 µg/mL | 1 µg/mL | 4 µg/mL | 4 µg/mL | 32 µg/mL
Nc1cccc(C(O)c2c[nH]c3cnccc23)c1 (stereo not drawn) [Compound 3NH2-6aza-OH, (3-aminophenyl)(1H-pyrrolo[2,3-c]pyridin-3-yl)methanol] | < 1020 µg/mL | < 1020 µg/mL | < 1020 µg/mL | < 1020 µg/mL | < 1020 µg/mL | 8 µg/mL | 64 µg/mL | 32 µg/mL | 32 µg/mL
O=[N+]([O-])c1cccc(C(O)c2c[nH]c3cnccc23)c1 (stereo not drawn) [Compound 3NO2-6aza-OH, (3-nitrophenyl)(1H-pyrrolo[2,3-c]pyridin-3-yl)methanol] | < 1020 µg/mL | < 1020 µg/mL | < 1020 µg/mL | < 1020 µg/mL | < 1020 µg/mL | 64 µg/mL | 128 µg/mL | 256 µg/mL | <256 µg/mL
O=[N+]([O-])c1cccc(C(O)c2c[nH]c3ncccc23)c1 (stereo not drawn) [Compound 3NO2-7aza-OH, (3-nitrophenyl)(1H-pyrrolo[2,3-b]pyridin-3-yl)methanol] | < 1020 µg/mL | < 1020 µg/mL | < 1020 µg/mL | < 1020 µg/mL | < 1020 µg/mL | <256 µg/mL | <256 µg/mL | <256 µg/mL | <256 µg/mL
OC(c1ccc(Br)cc1)c1c[nH]c2cnccc12 (stereo not drawn) [Compound 4Br-6aza-OH, (4-bromophenyl)(1H-pyrrolo[2,3-c]pyridin-3-yl)methanol] | < 1020 µg/mL | < 1020 µg/mL | < 1020 µg/mL | < 1020 µg/mL | < 1020 µg/mL | 32 µg/mL | 4 µg/mL | 8 µg/mL | 16 µg/mL
